According to publication PMC10354048 (Communications Chemistry, 2023):
Where no end group is shown, it is not given here. [ ]: non-standard residue; d: D form. Trp(1-Me) = Cn1cc(C[C@H](N)C(=O)O)c2ccccc21

B1: aureocin A53 (L-AucA, wild type) (natural protein)
chain: MSWLNFLKYIAKYGKKAVSAAWKYKGKVLEWLNVGPTLEWVWQKLKKIAGL
notes: also called AucA-wt; wild-type AucA; source: synthetic: native chemical ligation of two peptide segments and desulfurization, purified by semi-preparative HPLC
B2: AucA-W22L (natural protein)
chain: MSWLNFLKYIAKYGKKAVSAALKYKGKVLEWLNVGPTLEWVWQKLKKIAGL
notes: also called W22L variant; source: synthetic: automated SPPS on rink amide protide resin

Assays:
S. aureus CW115852 = assay: microbe, parasite or virus in culture; conditions: broth microdilution per CSLI guidelines, cation-adjusted Mueller Hinton Broth 2, 5 × 10^5 CFU/mL, 37 °C, 20 h, range 64–0.125 µg/mL, average of three repeat assays
Experimental: (§1) Minimum inhibitory concentrations, determined by broth microdilution, are expressed as an average of three repeat assays. […] [a] MIC values expressed in μg/mL, [b] AC: American Type Culture Collection strain, [c] CW: CANWARD collection clinical isolate strain.33.
(§2) Minimum Inhibitory Concentrations (MIC) were determined for each of the bacteriocins and controls using a broth microdilution method, as per CSLI guidelines for microbial susceptibility testing. The peptides were dissolved in sterile deionized water to prepare the working stocks, with concentrations determined by UV absorbance at 280 nm[56]. Overnight cultures from the strains of interest were incubated with shaking overnight at 37 °C. Cation-adjusted Mueller Hinton Broth 2 (MHB 2) was used for the S. aureus, and S. epidermidis strains and Brain Heart Infusion (BHI) broth was utilized for the E. faecalis and E. faecium strains. The cultures were prepared and diluted to the turbidity of a 0.5 McFarland standard using MHB or BHI fresh media. Increasing concentrations of the leaderless bacteriocins were added to a 96-well polypropylene plate. The range tested for each bacteriocin was 64–0.125 µg/mL. The bacterial culture was further diluted and mixed in a 1:1 ratio with the bacteriocin solution to yield a final concentration in the wells of 5 × 10^5 CFU/mL. […] A 1:1000 dilution of the growth control was prepared in the respective media and plated onto agar (100 μL) to ensure the correct inoculum concentration (5 × 10^5 CFU/mL indicated by ≈ 50 bacterial colonies). The 96-well and agar plates were incubated at 37 °C, and growth was assessed by the formation of a pellet observable with the naked eye after 20 h. […] Each assay was performed in triplicate.
(§3) Materials and instruments […]
(§4) Minimum Inhibitory Concentration (MIC)
(§5) assays were conducted in 96-Well Clear polypropylene corner notch microplates (Corning, #11313595). For the […]

E. faecalis CW133003 = assay: microbe, parasite or virus in culture; conditions: broth microdilution per CSLI guidelines, Brain Heart Infusion broth, 5 × 10^5 CFU/mL, 37 °C, 20 h, range 64–0.125 µg/mL, average of three repeat assays
Experimental: as §1, §2, §3, §4, §5

S. aureus CW114125 = assay: microbe, parasite or virus in culture; conditions: broth microdilution per CSLI guidelines, cation-adjusted Mueller Hinton Broth 2, 5 × 10^5 CFU/mL, 37 °C, 20 h, range 64–0.125 µg/mL, average of three repeat assays
Experimental: as §1, §2, §3, §4, §5

S. aureus AC29213 = assay: microbe, parasite or virus in culture; conditions: broth microdilution per CSLI guidelines, cation-adjusted Mueller Hinton Broth 2, 5 × 10^5 CFU/mL, 37 °C, 20 h, range 64–0.125 µg/mL, average of three repeat assays
Experimental: as §1, §2, §3, §4, §5

S. epidermidis CW131612 = assay: microbe, parasite or virus in culture; conditions: broth microdilution per CSLI guidelines, cation-adjusted Mueller Hinton Broth 2, 5 × 10^5 CFU/mL, 37 °C, 20 h, range 64–0.125 µg/mL, average of three repeat assays
Experimental: as §1, §2, §3, §4, §5

S. aureus CW113379 = assay: microbe, parasite or virus in culture; conditions: broth microdilution per CSLI guidelines, cation-adjusted Mueller Hinton Broth 2, 5 × 10^5 CFU/mL, 37 °C, 20 h, range 64–0.125 µg/mL, average of three repeat assays
Experimental: as §1, §2, §3, §4, §5

E. faecalis CW133346 = assay: microbe, parasite or virus in culture; conditions: broth microdilution per CSLI guidelines, Brain Heart Infusion broth, 5 × 10^5 CFU/mL, 37 °C, 20 h, range 64–0.125 µg/mL, triplicate
Experimental: as §2, §3
(§6) Minimum Inhibitory Concentration (MIC) assays were conducted in 96-Well Clear polypropylene corner notch microplates (Corning, #11313595). For the assay media, cation adjusted Mueller Hinton Broth 2 (Sigma Aldrich, #90922) was used for the S. aureus, and S. epidermidis strains and Brain Heart Infusion broth (BD, #221812) was used for the E. faecalis and E. faecium […]
(§7) used, as well as melittin prepared by automated SPPS. Experimental bacterial strains used were procured from the American Type Culture collection (S. aureus 29213) and the Canadian Antimicrobial Resistance Alliance

S. epidermidis CW130500 = assay: microbe, parasite or virus in culture; conditions: broth microdilution per CSLI guidelines, cation-adjusted Mueller Hinton Broth 2, 5 × 10^5 CFU/mL, 37 °C, 20 h, range 64–0.125 µg/mL, triplicate
Experimental: as §2, §3, §6, §7

E. faecium CW130826 = assay: microbe, parasite or virus in culture; conditions: broth microdilution per CSLI guidelines, Brain Heart Infusion broth, 5 × 10^5 CFU/mL, 37 °C, 20 h, range 64–0.125 µg/mL, triplicate
Experimental: as §2, §3, §6, §7

E. faecium CW131126 = assay: microbe, parasite or virus in culture; conditions: broth microdilution per CSLI guidelines, Brain Heart Infusion broth, 5 × 10^5 CFU/mL, 37 °C, 20 h, range 64–0.125 µg/mL, triplicate
Experimental: as §2, §3, §6, §7

[1] = target: the molecule itself; assay: SEC; analytical size exclusion chromatography in phosphate-buffered saline (pH 7.4), UV 210 nm

Molecule	Minimum inhibitory concentration S. aureus CW115852 (S. aureus CW115852)	Minimum inhibitory concentration E. faecalis CW133003 (E. faecalis CW133003)	Minimum inhibitory concentration S. aureus CW114125 (S. aureus CW114125)	Minimum inhibitory concentration S. aureus AC29213 (S. aureus AC29213)	Minimum inhibitory concentration S. epidermidis CW131612 (S. epidermidis CW131612)	Minimum inhibitory concentration S. aureus CW113379 (S. aureus CW113379)	Minimum inhibitory concentration E. faecalis CW133346 (E. faecalis CW133346)	Minimum inhibitory concentration S. epidermidis CW130500 (S. epidermidis CW130500)	Minimum inhibitory concentration E. faecium CW130826 (E. faecium CW130826)	Minimum inhibitory concentration E. faecium CW131126 (E. faecium CW131126)	stoichiometry N [1]	binding result [1]
MSWLNFLKYIAKYGKKAVSAAWKYKGKVLEWLNVGPTLEWVWQKLKKIAGL-NH2 [L-AucA, L-aureocin A53 (Met^1-Leu^51)]	16 µg/mL	4 µg/mL	4 µg/mL	4 µg/mL	4 µg/mL	4 µg/mL	4 µg/mL	4 µg/mL	2 µg/mL	2 µg/mL		
MS[Trp(1-Me)]LNFLKYIAKYGKKAVSAAWKYKGKVLEWLNVGPTLEWVWQKLKKIAGL-NH2 [L-^1MeW3, L-aureocin A53 ^1MeTrp3 (Met^1-Leu^51)]	8 µg/mL	2 µg/mL	4 µg/mL	4 µg/mL	8 µg/mL	4 µg/mL	1 µg/mL	4 µg/mL	2 µg/mL	2 µg/mL		
[dM][dA]G[dF][dL][dK][dV][dV][dQ][dL][dL][dA][dK][dY]G[dS][dK][dA][dV][dQ][dW][dA][dW][dA][dN][dK]G[dK][dI][dL][dD][dW][dL][dN][dA]G[dQ][dA][dI][dD][dW][dV][dV][dS][dK][dI][dK][dQ][dI][dL]G[dI][dK]-NH2 [D-LnqQ, D-lacticin Q (Met^1-Lys^53)]	4 µg/mL	2 µg/mL	8 µg/mL	4 µg/mL	4 µg/mL	4 µg/mL	2 µg/mL	4 µg/mL	2 µg/mL	2 µg/mL		
[dM][dS][dW][dL][dN][dF][dL][dK][dY][dI][dA][dK][dY]G[dK][dK][dA][dV][dS][dA][dA][dW][dK][dY][dK]G[dK][dV][dL][dE][dW][dL][dN][dV]G[dP][dT][dL][dE][dW][dV][dW][dQ][dK][dL][dK][dK][dI][dA]G[dL]-NH2 [D-AucA, D-aureocin A53 (Met^1-Leu^51)]	2 µg/mL	4 µg/mL	4 µg/mL	4 µg/mL	4 µg/mL	4 µg/mL	4 µg/mL	4 µg/mL	2 µg/mL	4 µg/mL		
B1											2	
B2												binds
